Reference: US7220784B2, “Substituted stilbenes and their reactions” (priority 2000, dated 2007)
Read-outs that look alike come from different tables or passages of the source.

Key:
[1] = test system: T1, tubulin; test: Inhibition of tubulin assembly; format: biochemical; settings: concentration required to reduce assembly of tubulin by 50%
T1 construct: other: concentration required to reduce assembly of tubulin by 50%
Procedure: (§1) The following assays (1–5) were carried out as described in our paper (Woods, et al, British Journal of Cancer, 71, 705–711 (1995)). In addition to the cell lines described in this paper, other established human cell lines (K562, HUVEC, H460, BE, H529, and HT29) were used in the cytotoxicity/growth inhibition assay. • (1) Inhibition of tubulin assembly. The figure quoted is the concentration required to reduce assembly of tubulin by 50%. Tubulin assembly is monitored by light scatter/absorption at 350 nm.

[2] = test system: K562 human myelogeneous leukaemia cell line; test: Cytotoxicity/growth inhibition assay (MTT), K562; format: cell-based; settings: MTT, read-out: K562 IC50
Source text: as §1, with “In” for “The following assays (1–5) were carried out as described in our paper (Woods, et al, British Journal of Cancer, 71, 705–711 (1995)). In”
(§2) (2) Competition for the colchicine binding site on tubulin. The figure quoted represents the % of ^3H-colchicine bound following co-incubation of test compound and ^3H-cochicine with isolated tubulin. Where ester pro-drugs were used the experiments were carried out in the presence and absence of porcine liver esterase. • (3) Cytotoxicity/growth inhibition assay. This was carried out by the MTT assay. • (4) Permeability (shape-change) assay in endothelial cells. […] This involved the diffusion of a fluorescently labelled dextran through a barrier of endothelial cells (HUVEC) grown to confluence on a porous membrane. The effect of agents to alter the shape of these cells results in an increase in the permeability of the cells to the dye. The figure represents the increase in permeability over control cultures when drug is added (30 minutes, 1 mM.). • (5) Experiments to study the anti-vascular effects of these agents were carried out as described previously by our group. […] The anti-vascular effects of the agents were monitored by either positron emission tomography (PET) or by histologogical examination following treatment of mice bearing T50:80 murine breast tumours, or H460 human lung tumours. • (6) Anti-tumour efficacy of agents was determined in xenografts of H460 human lung cancer. Animals (n=5) were trated either with 5 daily injections and tumour size measured with time following treatment. • (7) The pharmacokinetic profile of agents was determined in mice following injection with drug. Blood was taken at various times following treatment and analysed by HPLC with UV detection. […] (AND(P)H:quinone oxidoreductace, EC 1.6.99.2). DT-diaphorase is an enzyme over-expressed in a number of human tumours. […] This two-electron reducing enzyme can be used to selectively activate prodrugs within cancers which over-express the enzyme.

[3] = test system: tubulin; test: MA IC50 (Tables 12-26, abbreviation not defined); format: biochemical
[4] = test system: tubulin; test: CD IC50 (Tables 12-26, abbreviation not defined); format: binding
[5] = test system: HUVEC; test: Growth inhibition studies using HUVEC; format: cell-based, human; settings: Homo sapiens, HUVEC
Procedure: as §1
(§3) (2) Competition for the colchicine binding site on tubulin. The figure quoted represents the % of ^3H-colchicine bound following co-incubation of test compound and ^3H-cochicine with isolated tubulin. Where ester pro-drugs were used the experiments were carried out in the presence and absence of porcine liver esterase. • (3) Cytotoxicity/growth inhibition assay. This was carried out by the MTT assay. • (4) Permeability (shape-change) assay in endothelial cells. This was carried out using a method based on that of Watts et al. (Anticancer Res., 17, 71–75, (1997)). This involved the diffusion of a fluorescently labelled dextran through a barrier of endothelial cells (HUVEC) grown to confluence on a porous membrane. The effect of agents to alter the shape of these cells results in an increase in the permeability of the cells to the dye. The figure represents the increase in permeability over control cultures when drug is added (30 minutes, 1 mM.). • (5) Experiments to study the anti-vascular effects of these agents were carried out as described previously by our group. (Zhao et al, European Journal of Nuclear Medicine, 26, 231–238 (1999)). The anti-vascular effects of the agents were monitored by either positron emission tomography (PET) or by histologogical examination following treatment of mice bearing T50:80 murine breast tumours, or H460 human lung tumours. • (6) Anti-tumour efficacy of agents was determined in xenografts of H460 human lung cancer. Animals (n=5) were trated either with 5 daily injections and tumour size measured with time following treatment. • (7) The pharmacokinetic profile of agents was determined in mice following injection with drug. Blood was taken at various times following treatment and analysed by HPLC with UV detection. The HPLC conditions were isocratic using a 5 micron C18 BDS column (150×4.6) ad eluting with 75% MeOH in water with a detection wavelength of 290 nm. […] (AND(P)H:quinone oxidoreductace, EC 1.6.99.2). DT-diaphorase is an enzyme over-expressed in a number of human tumours. […] This two-electron reducing enzyme can be used to selectively activate prodrugs within cancers which over-express the enzyme.

[6] = test system: K562; test: K562 cell cycle analysis; format: cell-based, human; settings: K562
[7] = test system: A2780; test: Cytotoxicity/growth inhibition assay (MTT), A2780; format: cell-based; settings: read-out: A2780 IC50
Procedure: as §1, §3

[8] = test system: P388 murine leukaemia cell line; test: Cytotoxicity/growth inhibition assay (MTT), P388; format: cell-based; settings: MTT
Procedure: as §2

[9] = test system: K562; test: IC50 of aliquots after ex situ irradiation in a photochemical reactor; settings: for IC50: read-out: IC50 K562, ex situ irradiation in benzene, 400W Hg lamp
[10] = test system: K562 cells; test: In situ ultra violet irradiation of dosed K562 cells, IC50; format: cell-based, human; settings: read-out: IC50 K562 (nm)
Procedure: Previously, the isomerisation study had been performed ex situ, i.e. in a photochemical reactor. However, it was necessary to illustrate the potential of the process as a real therapy by repeating the isomerization in the presence of the caner cells i.e. in situ. […] Following irradiation, the cells were incubated in the normal way and the IC50 values were determined.
These consisted of i) exposing K562 cells only (i.e. cells which were not dosed with any potential drug candidate) to ultra violet light, ii) preventing K562 cells dosed with drug candidate from being exposed to ultra violet light, and iii) preventing K562 cells only (i.e. cells which were not dosed with any potential drug candidate) from being exposed to ultra violet light. […]

[11] = Photocleavage and isomerisation of coupled trans-CA-4 ex situ, composition (HPLC); format: physicochemical; settings: benzene
Source text: The following compound retention times were observed:

[12] = of cells with DNA content = 2 n or >2 n
[13] = irradiation 20. mins [sic] (Table 8)
[14] = irradiation 10.0 mins (Table 8)
[15] = irradiation 12.5 mins (Table 8)

Compound: CCOc1cc(/C=C\c2ccc(OC)c(O)c2)cc(OCC)c1OCC [Compound 31a, Z-1-(3′,4′,5′-triethoxyphenyl)-2-(3″-hydroxy-4″-methoxyphenyl)ethene]
- IC50 [1]: 7.5 µM
- IC50 ([2]; Homo sapiens, K562): 18 nM

Compound: COc1ccc(/C=C\c2cc(OC)c(OC)c(OC)c2)cc1 [Compound 32]
- IC50 [3]: 200 nM
- IC50 [4]: 5500 nM
- IC50 [5]: 6 nM
- IC50 ([2]; Homo sapiens, K562): 4 nM

Compound: CCOc1cc(/C=C\c2ccc(OC)c(F)c2)cc(OCC)c1OCC [Compound 32a, Z-1-(3′,4′,5′-triethoxyphenyl)-2-(3″-fluoro-4″-methoxyphenyl)ethene]
- IC50 [1]: 18 µM
- IC50 ([2]; Homo sapiens, K562): 44 nM

Compound: CC/C(=C/c1cc(OC)c(OC)c(OC)c1)c1ccc(OC)c(O)c1 [Compound 45]
- IC50 [1]: 1.8 µM
- IC50 ([2]; Homo sapiens, K562): 120 nM

Compound: COc1ccc(/C=C\c2cc(OC)c(OC)c(OC)c2)cc1F [Compound 90]
- IC50 [3]: 85 nM
- % of cells with DNA content <2 n [6]: 16%
- % of cells in G0–G1 [6, 12]: 5%
- % of cells in G2-M [6, 12]: 79%
- % of cells in S phase [6, 12]: 16%
- IC50 [4]: 2800 nM
- IC50 [5]: 4 nM
- IC50 ([2]; Homo sapiens, K562): 10 nM

Compound: COc1ccc(/C=C\c2cc(OC)c(OC)c(OC)c2)cc1Br [Compound 93]
- IC50 [3]: 400 nM
- IC50 [4]: 10000 nM
- IC50 [5]: 67 nM
- IC50 ([2]; Homo sapiens, K562): 1 nM

Compound: COc1ccc(/C=C\c2cc(OC)c(OC)c(OC)c2)cc1OC [Compound 99-03H]
- IC50 [7]: 120 nM
- IC50 [1]: 60 µM
- IC50 [8]: 190 nM
- IC50 [2]: 60 nM

Compound: COC(=O)CCCOc1cc([N+](=O)[O-])c(COc2cc(/C=C/c3cc(OC)c(OC)c(OC)c3)ccc2OC)cc1OC [Compound E-8, Methyl 4-[2′-methoxy-4′-({2″-methoxy-5″-[(E)-2′″-3′″,4′″,5′″-trimethoxyphenylethenyl]phenoxy}-methyl)-5′-nitrophenoxy]butanoate]
- times less cytotoxic than trans-CA-4 ([9]; K562): 5
- IC50 ([9]; 0 mins (Table 8)): > 150000 nM
- IC50 ([9]; 20. mins as printed (Table 8)): 59 nM
- IC50 ([9]; 0.5 mins (Table 8)): 14600 nM
- IC50 ([9]; 1.0 mins (Table 8)): 450 nM
- IC50 ([9]; 1.5 mins (Table 8)): 90 nM
- IC50 ([9]; 3.0 mins (Table 8)): 14 nM
- IC50 ([9]; 4.0 mins (Table 8)): 12 nM
- IC50 ([9]; 5.0 mins (Table 8)): 8 nM
- IC50 ([9]; 7.5 mins (Table 8)): 4 nM
- IC50 ([9]; 10.0 mins (Table 8)): 6 nM
- IC50 ([9]; 12.5 mins (Table 8)): 2 nM
- IC50 ([9]; 15.0 mins (Table 8)): 2 nM
- IC50 ([9]; 17.5 mins (Table 8)): 4 nM
- IC50 ([9]; 20.0 mins (Table 8)): 3 nM
- IC50 ([10]; in situ UV 0 mins (Table 9)): > 100000 nM
- IC50 ([10]; in situ UV 0.5 mins (Table 9)): 1540 nM
- IC50 ([10]; in situ UV 1 mins (Table 9)): 450 nM
- IC50 ([10]; in situ UV 1.5 mins (Table 9)): 250 nM
- IC50 ([10]; in situ UV 2 mins (Table 9)): 130 nM
- IC50 ([10]; in situ UV 3 mins (Table 9)): 40 nM
- IC50 ([10]; in situ UV 4 mins (Table 9)): 11 nM
- IC50 ([10]; in situ UV 5 mins (Table 9)): 9 nM
- IC50 ([10]; in situ UV 7.5 mins (Table 9)): 5 nM
- IC50 ([10]; in situ UV 10 mins (Table 9)): 2 nM
- IC50 ([10]; in situ UV 12.5 mins (Table 9)): 3 nM
- IC50 ([10]; in situ UV 15 mins (Table 9)): 3 nM
- IC50 ([10]; in situ UV 17.5 mins (Table 9)): 2 nM
- IC50 ([10]; in situ UV 20 mins (Table 9)): 2 nM
- % coupled trans-CA-4 (E-8) ([11]; irradiation 0 mins (Table 8)): 100%
- % cis-CA-4 [11, 13]: 9%
- % coupled trans-CA-4 (E-8) [11, 13]: 72%
- % trans-CA-4 [11, 13]: 19%
- % coupled trans-CA-4 (E-8) ([11]; irradiation 0.5 mins (Table 8)): 93%
- % trans-CA-4 ([11]; irradiation 0.5 mins (Table 8)): 7%
- % cis-CA-4 ([11]; irradiation 1.0 mins (Table 8)): 4%
- % coupled trans-CA-4 (E-8) ([11]; irradiation 1.0 mins (Table 8)): 88%
- % trans-CA-4 ([11]; irradiation 1.0 mins (Table 8)): 8%
- % cis-CA-4 ([11]; irradiation 1.5 mins (Table 8)): 8%
- % coupled trans-CA-4 (E-8) ([11]; irradiation 1.5 mins (Table 8)): 80%
- % trans-CA-4 ([11]; irradiation 1.5 mins (Table 8)): 12%
- % cis-CA-4 ([11]; irradiation 3.0 mins (Table 8)): 11%
- % coupled trans-CA-4 (E-8) ([11]; irradiation 3.0 mins (Table 8)): 62%
- % trans-CA-4 ([11]; irradiation 3.0 mins (Table 8)): 27%
- % cis-CA-4 ([11]; irradiation 4.0 mins (Table 8)): 8%
- % coupled trans-CA-4 (E-8) ([11]; irradiation 4.0 mins (Table 8)): 61%
- % trans-CA-4 ([11]; irradiation 4.0 mins (Table 8)): 31%
- % cis-CA-4 ([11]; irradiation 5.0 mins (Table 8)): 10%
- % coupled trans-CA-4 (E-8) ([11]; irradiation 5.0 mins (Table 8)): 53%
- % trans-CA-4 ([11]; irradiation 5.0 mins (Table 8)): 37%
- % cis-CA-4 ([11]; irradiation 7.5 mins (Table 8)): 13%
- % coupled trans-CA-4 (E-8) ([11]; irradiation 7.5 mins (Table 8)): 42%
- % trans-CA-4 ([11]; irradiation 7.5 mins (Table 8)): 45%
- % cis-CA-4 [11, 14]: 19%
- % coupled trans-CA-4 (E-8) [11, 14]: 34%
- % trans-CA-4 [11, 14]: 47%
- % cis-CA-4 [11, 15]: 45%
- % coupled trans-CA-4 (E-8) [11, 15]: 20%
- % trans-CA-4 [11, 15]: 35%
